Results reported in patent US11787780B2 (CORCEPT THERAPEUTICS INCORPORATED, priority 2020, dated 2023).

Columns and labels:
[1] = target: glucocorticoid receptor (GR) recombinant ligand binding domain (LBD) (Homo sapiens (Human), UniProt P04150); assay: GR binding fluorescence polarisation (FP) assay; conditions: displacement of fluorescently tagged ligand
Protocol: Binding of test compounds to the glucocorticoid receptor (GR) is determined using a fluorescence polarisation (FP) assay utilising a recombinant ligand binding domain (LBD) of GR. The test compounds are assessed by their ability to displace a fluorescently tagged ligand and detection of the resulting decrease in fluorescence polarisation.

[2] = test system: induction of TAT by dexamethasone in HepG2 cells; assay: Hep G2 TAT assay (inhibition of dexamethasone-induced TAT); assay type: cell-based, human; conditions: challenge of 100 nM dexamethasone, IC50 converted to Ki by Cheng and Prusoff equation

glucocorticoid receptor (GR) recombinant ligand binding domain (LBD), sequence (P04150 524-758): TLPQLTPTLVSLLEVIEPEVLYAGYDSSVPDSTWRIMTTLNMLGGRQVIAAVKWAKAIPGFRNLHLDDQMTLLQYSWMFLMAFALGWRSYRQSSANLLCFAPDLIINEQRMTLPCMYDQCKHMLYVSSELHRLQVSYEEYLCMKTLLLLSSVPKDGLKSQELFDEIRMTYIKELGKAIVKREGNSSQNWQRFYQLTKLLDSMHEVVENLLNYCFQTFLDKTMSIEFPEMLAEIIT

## Cc1cc2c(cnn2-c2ccc(F)cc2)cc1N1CCN(S(=O)(=O)c2cnn(C(C)C)n2)C2(CC2)C1 [Example 68]
[1]
  IC50: 35 nM
[2]
  Ki: 30 nM

## COc1cc2c(cnn2-c2ccc(F)cc2)cc1N1CCN(S(C)(=O)=O)C2(CC2)C1 [Example 70]
[1]
  IC50: 28 nM
[2]
  Ki: 1580 nM

## CCCn1cc(S(=O)(=O)N2C3CC2CN(c2cc4cnn(-c5ccc(F)cc5)c4cc2C)C3)cn1 [Example 73]
[1]
  IC50: 151 nM
[2]
  Ki: 306 nM

## CCCn1cc(S(=O)(=O)N2CCN(c3cc4cnn(-c5cccc(C(=O)NC6CCOC6)c5)c4cc3C)CC23CC3)cn1 (stereo not drawn) [Example 84]
[1]
  IC50: 10 nM
[2]
  Ki: 103 nM

## Cc1cc2c(cnn2-c2cccc(C(=O)NC3CCOC3)c2)cc1N1CCN(S(C)(=O)=O)C2(CC2)C1 (stereo not drawn) [Example 85]
[1]
  IC50: 163 nM
[2]
  Ki: 1420 nM

## CCCn1cc(S(=O)(=O)N2CCN(c3cc4cnn(-c5ccc(F)cc5)c4cc3C)C(c3ccccc3)C2)cn1 (stereo not drawn) [Example 86]
[1]
  IC50: 162 nM
[2]
  Ki: 864 nM

## Cc1cc2c(cnn2-c2ccc(F)cc2)cc1N1CCC2CN(S(C)(=O)=O)CC21 (stereo not drawn) [Example 90]
[1]
  IC50: 45 nM
[2]
  Ki: 343 nM

## CCCn1cc(S(=O)(=O)N2CC3CCN(c4cc5cnn(-c6ccc(F)cc6)c5cc4C)C3C2)cn1 (stereo not drawn) [Example 91]
[1]
  IC50: 227 nM
[2]
  Ki: 336 nM

## CCCn1cc(S(=O)(=O)N2CCC3(CCN(c4cc5cnn(-c6ccc(F)cc6)c5cc4C)CC3)C2)cn1 [Example 94]
[1]
  IC50: 52 nM
[2]
  Ki: 95 nM

## Cc1cc2c(cnn2-c2ccc(F)cc2)cc1N1CCN(C(=O)c2cnn(C)c2)C2(CC2)C1 [Example 100]
[1]
  IC50: 233 nM
[2]
  Ki: 1200 nM

## Cc1cc2c(cnn2-c2ccc(F)cc2)cc1N1CCN(C(=O)c2ccc(F)c(F)c2)C2(CC2)C1 [Example 101]
[1]
  IC50: 118 nM
[2]
  Ki: 823 nM

## CCOC(=O)N1CCN(c2cc3cnn(-c4ccc(F)cc4)c3cc2C)CC12CC2 [Example 103]
[1]
  IC50: 135 nM
[2]
  Ki: 1710 nM

## CCCn1cc(S(=O)(=O)NC2(C)CCN(c3cc4cnn(-c5ccc(F)cc5)c4cc3C)C2)cn1 (stereo not drawn) [Example 120]
[1]
  IC50: 3 nM
[2]
  Ki: 218 nM

## COCCN([C@@H]1CCN(c2cc3cnn(-c4ccc(F)cc4)c3cc2C)C1)S(=O)(=O)c1cnn(C)c1 [Example 121]
[1]
  IC50: 40 nM
[2]
  Ki: 120 nM

## CCCn1cc(S(=O)(=O)N(CCOC)[C@@H]2CCN(c3cc4cnn(-c5ccc(F)cc5)c4cc3C)C2)cn1 [Example 122]
[1]
  IC50: 14 nM
[2]
  Ki: 155 nM

## Cc1cc2c(cnn2-c2ccc(F)cc2)cc1N1CCC[C@H](N(C)S(C)(=O)=O)C1 [Example 123]
[1]
  IC50: 73 nM
[2]
  Ki: 284 nM

## Cc1cc2c(cnn2-c2ccc(F)cc2)cc1N1CCC[C@H](N(C)S(=O)(=O)c2cnn(C)c2)C1 [Example 124]
[1]
  IC50: 58 nM
[2]
  Ki: 216 nM

## CCCn1cc(S(=O)(=O)NC2(C)CCN(c3cc4cnn(-c5ccc(F)cc5)c4cc3C)CC2)cn1 [Example 129]
[1]
  IC50: 5 nM
[2]
  Ki: 66 nM

## Cc1cc2c(cnn2-c2ccc(F)cc2)cc1N1CCC(C)(NS(C)(=O)=O)CC1 [Example 130]
[1]
  IC50: 8 nM
[2]
  Ki: 144 nM

## Cc1cc2c(cnn2-c2ccc(F)cc2)cc1N1CCC(C)(NS(=O)(=O)c2cnn(C)c2)CC1 [Example 131]
[1]
  IC50: 4 nM
[2]
  Ki: 98 nM

## Cc1cc2c(cnn2-c2ccc(F)cc2)cc1N1CCC(C)(NS(=O)(=O)c2cnn(CC3CC3)n2)CC1 [Example 132]
[1]
  IC50: 13 nM
[2]
  Ki: 34 nM

## Cc1cc2c(cnn2-c2ccc(F)cc2)cc1N1CCC(C)(NS(=O)(=O)c2cnn(CC3CC3)c2)CC1 [Example 133]
[1]
  IC50: 7 nM
[2]
  Ki: 50 nM

## CCCn1cc(S(=O)(=O)N2CC=C(c3cc4cnn(-c5ccc(F)cc5)c4cc3C(C)C)CC2)cn1 [Example 141]
[1]
  IC50: 4220 nM
[2]
  Ki: 487 nM

## CS(=O)(=O)N1CC=C(c2cc3cnn(-c4ccc(F)cc4)c3cc2Cl)CC1 [Example 142]
[1]
  IC50: 429 nM
[2]
  Ki: 715 nM

## CCCn1cc(S(=O)(=O)N2CC=C(c3cc4cnn(-c5ccc(F)cc5)c4cc3Cl)CC2)cn1 [Example 143]
[1]
  IC50: 384 nM
[2]
  Ki: 32 nM

## CCCn1cc(S(=O)(=O)N2CC=C(c3cc4cnn(-c5ccc(F)cc5)c4cc3OC(F)F)CC2)cn1 [Example 144]
[1]
  IC50: 265 nM
[2]
  Ki: 180 nM

## CCCn1cc(S(=O)(=O)N2CCC(Cc3ccccc3)(c3cc4cnn(-c5ccc(F)cc5)c4cc3C)C2)cn1 (stereo not drawn) [Example 147]
[1]
  IC50: 42 nM
[2]
  Ki: 12 nM

## Cc1cc2c(cnn2-c2ccc(F)cc2)cc1C1(Cc2cccnc2)CCN(S(C)(=O)=O)C1 (stereo not drawn) [Example 148]
[1]
  IC50: 24 nM
[2]
  Ki: 331 nM

## CCCn1cc(S(=O)(=O)N2CCC(Cc3cccnc3)(c3cc4cnn(-c5ccc(F)cc5)c4cc3C)C2)cn1 (stereo not drawn) [Example 149]
[1]
  IC50: 13 nM
[2]
  Ki: 108 nM

## Cc1cc2c(cnn2-c2ccc(F)cc2)cc1C1(Cc2ccccn2)CCN(S(C)(=O)=O)C1 (stereo not drawn) [Example 150]
[1]
  IC50: 13 nM
[2]
  Ki: 169 nM

## Cc1cc2c(cnn2-c2ccc(F)cc2)cc1C1(Cc2ccccn2)CCN(S(=O)(=O)c2cnn(C)c2)C1 (stereo not drawn) [Example 151]
[1]
  IC50: 17 nM
[2]
  Ki: 161 nM

## Cc1cc2c(cnn2-c2ccc(F)cc2)cc1C1(Cc2ccccc2)CCN(S(=O)(=O)c2cnn(C)c2)C1 (stereo not drawn) [Example 153]
[1]
  IC50: 11 nM
[2]
  Ki: 26 nM

## Cc1cc2c(cnn2-c2ccc(F)cc2)cc1C1(Cc2ccccc2)CCN(S(=O)(=O)c2cncs2)C1 (stereo not drawn) [Example 154]
[1]
  IC50: 269 nM
[2]
  Ki: 14 nM

## Cc1cc2c(cnn2-c2ccc(F)cc2)cc1C1(Cc2ccccc2)CCN(S(=O)(=O)C2CC2)C1 (stereo not drawn) [Example 155]
[1]
  IC50: 13 nM
[2]
  Ki: 16 nM

## Cc1cc2c(cnn2-c2ccc(F)cc2)cc1C1(Cc2ccccc2)CCN(S(=O)(=O)C2CCOCC2)C1 (stereo not drawn) [Example 156]
[1]
  IC50: 11 nM
[2]
  Ki: 36 nM

## COc1cc2c(cnn2-c2ccc(F)cc2)cc1C1(Cc2ccccc2)CCN(S(C)(=O)=O)C1 (stereo not drawn) [Example 160]
[1]
  IC50: 5 nM
[2]
  Ki: 24 nM

## COc1cc2c(cnn2-c2ccc(F)cc2)cc1C1(Cc2ccccc2)CCN(S(=O)(=O)c2cnn(C)c2)C1 (stereo not drawn) [Example 161]
[1]
  IC50: 11 nM
[2]
  Ki: 39 nM

## CCCn1cc(S(=O)(=O)N2CCC(Cc3ccccc3)(c3cc4cnn(-c5ccc(F)cc5)c4cc3OC)C2)cn1 (stereo not drawn) [Example 162]
[1]
  IC50: 18 nM
[2]
  Ki: 16 nM

## CC(C)c1cc2c(cnn2-c2ccc(F)cc2)cc1C1(Cc2ccccc2)CCN(S(C)(=O)=O)C1 (stereo not drawn) [Example 163]
[1]
  IC50: 106 nM
[2]
  Ki: 60 nM

## CC(C)c1cc2c(cnn2-c2ccc(F)cc2)cc1C1(Cc2ccccc2)CCN(S(=O)(=O)c2cnn(C)c2)C1 (stereo not drawn) [Example 164]
[1]
  IC50: 189 nM
[2]
  Ki: 89 nM

## CCCn1cc(S(=O)(=O)N2CCC(Cc3ccccc3)(c3cc4cnn(-c5ccc(F)cc5)c4cc3C(C)C)C2)cn1 (stereo not drawn) [Example 165]
[1]
  IC50: 72 nM
[2]
  Ki: 37 nM

## COc1cc2c(cnn2-c2ccc(F)cc2)cc1C1(Cc2ccccc2)CCN(S(=O)(=O)C2CC2)C1 (stereo not drawn) [Example 166]
[1]
  IC50: 14 nM
[2]
  Ki: 26 nM

## CCC1(c2cc3cnn(-c4ccc(F)cc4)c3cc2C)CCN(S(C)(=O)=O)C1 (stereo not drawn) [Example 167]
[1]
  IC50: 8 nM
[2]
  Ki: 256 nM

## CCCn1cc(S(=O)(=O)N2CCC(CC)(c3cc4cnn(-c5ccc(F)cc5)c4cc3C)C2)cn1 (stereo not drawn) [Example 168]
[1]
  IC50: 6 nM
[2]
  Ki: 67 nM

## Cc1cc2c(cnn2-c2ccc(F)cc2)cc1C1(Cc2ccc(C(F)(F)F)cn2)CCN(S(=O)(=O)c2cnn(C)c2)C1 (stereo not drawn) [Example 169]
[1]
  IC50: 217 nM
[2]
  Ki: 159 nM

## Cc1cc2c(cnn2-c2ccc(F)cc2)cc1C1(Cc2ccc(C(F)(F)F)nc2)CCN(S(=O)(=O)c2cnn(C)c2)C1 (stereo not drawn) [Example 170]
[1]
  IC50: 123 nM
[2]
  Ki: 104 nM

## Cc1cc2c(cnn2-c2ccc(F)cc2)cc1C1(Cc2ccc(C(F)F)nc2)CCN(S(=O)(=O)c2cnn(C)c2)C1 (stereo not drawn) [Example 171]
[1]
  IC50: 67 nM
[2]
  Ki: 171 nM

## Cc1cc2c(cc1C1(Cc3ccccc3)CCN(S(=O)(=O)c3cnn(C)c3)C1)nnn2-c1ccc(F)cc1 (stereo not drawn) [Example 172]
[1]
  IC50: 58 nM
[2]
  Ki: 83 nM

## Cn1cc(S(=O)(=O)N2CCC(Cc3ccccc3)(c3cc4cnn(-c5ccc(F)cc5)c4cc3F)C2)cn1 (stereo not drawn) [Example 173]
[1]
  IC50: 66 nM
[2]
  Ki: 69 nM

## Cc1cc2c(cnn2-c2ccc(F)cc2)cc1C1(Cc2ccc(F)cc2)CCN(S(C)(=O)=O)C1 (stereo not drawn) [Example 174]
[1]
  IC50: 9 nM
[2]
  Ki: 28 nM

## Cc1cc2c(cnn2-c2ccc(F)cc2)cc1C1(Cc2cccc(C(F)(F)F)c2)CCN(S(C)(=O)=O)C1 (stereo not drawn) [Example 175]
[1]
  IC50: 24 nM
[2]
  Ki: 20 nM

## Cc1cc2c(cnn2-c2ccc(F)cc2)cc1C1(Cc2cccc(C(F)(F)F)c2)CCN(S(=O)(=O)c2cnn(C)c2)C1 (stereo not drawn) [Example 176]
[1]
  IC50: 60 nM
[2]
  Ki: 33 nM

## Cc1cc2c(cnn2-c2ccc(F)cc2)cc1C1(Cc2ccc(C(F)(F)F)cc2)CCN(S(C)(=O)=O)C1 (stereo not drawn) [Example 177]
[1]
  IC50: 212 nM
[2]
  Ki: 28 nM

## Cc1cc2c(cnn2-c2ccc(F)cc2)cc1C1(Cc2ccc(C(F)(F)F)cc2)CCN(S(=O)(=O)c2cnn(C)c2)C1 (stereo not drawn) [Example 178]
[1]
  IC50: 197 nM
[2]
  Ki: 30 nM

## CCCn1cc(S(=O)(=O)N2CCC(Cc3nccs3)(c3cc4cnn(-c5ccc(F)cc5)c4cc3C)C2)cn1 (stereo not drawn) [Example 189]
[1]
  IC50: 11 nM
[2]
  Ki: 91 nM

## CC(=O)N1CCC(Cc2ccccc2)(c2cc3cnn(-c4ccc(F)cc4)c3cc2C)C1 (stereo not drawn) [Example 190, 1-(3-benzyl-3-(1-(4-fluorophenyl)-6-methyl-1H-indazol-5-yl)pyrrolidin-1-yl)ethan-1-one]
[1]
  IC50: 5 nM
[2]
  Ki: 55 nM

## CC(=O)N1CCC(Cc2ccc(F)cc2)(c2cc3cnn(-c4ccc(F)cc4)c3cc2C)C1 (stereo not drawn) [Example 191, 1-(3-(4-fluorobenzyl)-3-(1-(4-fluorophenyl)-6-methyl-1H-indazol-5-yl)pyrrolidin-1-yl)ethan-1-one]
[1]
  IC50: 6 nM
[2]
  Ki: 61 nM
